In the experiment the test system is human JAK1. Nature of the experiment: In vitro JAK kinase assay (HTRF, phosphorylation of biotinylated peptide), JAK1. Type of experiment: biochemical. The conditions noted are these: ratio of JAK2 IC50 to JAK1 IC50, 1 mM ATP. The method, then:
Compounds herein were tested for inhibitory activity of JAK targets according to the following in vitro assay described in Park et al., Analytical Biochemistry 1999, 269, 94-104. The catalytic domains of human JAK1 (a.a. 837-1142), JAK2 (a.a. 828-1132) and JAK3 (a.a. 781-1124) were expressed using baculovirus in insect cells and purified. The catalytic activity of JAK1, JAK2 or JAK3 was assayed by measuring the phosphorylation of a biotinylated peptide. The phosphorylated peptide was detected by homogenous time resolved fluorescence (HTRF). IC50s of compounds were measured for each kinase in the 40 μL reactions that contain the enzyme, ATP and 500 nM peptide in 50 mM Tris (pH 7.8) buffer with 100 mM NaCl, 5 mM DTT, and 0.1 mg/mL (0.01%) BSA. For the 1 mM IC50 measurements, ATP concentration in the reactions was 1 mM. Reactions were carried out at room temperature for 1 hour and then stopped with 20 μL 45 mM EDTA, 300 nM SA-APC, 6 nM Eu-Py20 in assay buffer (Perkin Elmer, Boston, Mass.). Binding to the Europium labeled antibody took place for 40 minutes and HTRF signal was measured on a PHERA star plate reader (BMG, Cary, N.C.). The Example compounds were each tested in the Example A assay (see Table 1 for data for the compounds of the examples as tested by the assay of Example A at 1 mM ATP).
Turning to `C[C@@H](O)c1nc2cnc3ccsc3c2n1[C@H]1CCCN(C(=O)CCc2cccnc2)C1` [Example 54, (1R)-1-{1-[(3S)-1-(3-Pyridin-3-ylpropanoyl)piperidin-3-yl]-1H-imidazo[4,5-d]thieno[3,2-b]pyridin-2-yl}ethanol], the JAK2/JAK1 is greater than 10.
With `CC(CC(=O)N1CCC[C@H](n2c([C@@H](C)O)nc3cnc4ccsc4c32)C1)c1ccccc1` (stereo partly drawn) [Example 55, (1R)-1-{1-[(3S)-1-(3-Phenylbutanoyl)piperidin-3-yl]-1H-imidazo[4,5-d]thieno[3,2-b]pyridin-2-yl}ethanol], the JAK2/JAK1 was greater than 10.
Then `C[C@@H](O)c1nc2cnc3ccsc3c2n1[C@H]1CC[C@H](CNS(C)(=O)=O)CC1` [Example 80, N-[(trans-4-{2-[(1R)-1-Hydroxyethyl]-1H-imidazo[4,5-d]thieno[3,2-b]pyridin-1-yl}cyclohexyl)methyl]methanesulfonamide], with greater than 10; and `C[C@@H](O)c1nc2cnc3ccsc3c2n1[C@H]1CCCOC1` [Example 1, (1R)-1-{1-[(3S)-Tetrahydro-2H-pyran-3-yl]-1H-imidazo[4,5-d]thieno[3,2-b]pyridin-2-yl}ethanol], with greater than 3; and “((1R,2S,4S)-2-Hydroxy-4-{2-[(1R)-1-hydroxyethyl]-1H-imidazo[4,5-d]thieno[3,2-b]pyridin-1-yl}cyclohexyl)acetonitrile trifluoacetate and ((1S,2R,4R)-2-hydroxy-4-{2-[(1R)-1-hydroxyethyl]-1H-imidazo[4,5-d]thieno[3,2-b]pyridin-1-yl}cyclohexyl)acetonitrile trifluoacetate [37 (second peak)]”, with greater than 10.
For `N#CC[C@H]1CC[C@H](n2/c(=N/C#N)[nH]c3cnc4ccsc4c32)CC1.O=C(O)C(F)(F)F` [Example 25, {(2E)-1-[trans-4-(Cyanomethyl)cyclohexyl]-1,3-dihydro-2H-imidazo[4,5-d]thieno[3,2-b]pyridin-2-ylidene}cyanamide trifluoroacetate], the JAK2/JAK1 is greater than 6.
Then `N#CCC1CCC(CO)(n2cnc3cnc4ccsc4c32)CC1` (single isomer, unassigned) [72 (second peak), [4-(Hydroxymethyl)-4-(1H-imidazo[4,5-d]thieno[3,2-b]pyridin-1-yl)cyclohexyl]acetonitrile], with greater than 5.
For `CNS(=O)(=O)C[C@H]1CC[C@H](n2c([C@@H](C)O)nc3cnc4ccsc4c32)CC1` [Example 14, 1-(trans-4-{2-[(1R)-1-hydroxyethyl]-1H-imidazo[4,5-d]thieno[3,2-b]pyridin-1-yl}cyclohexyl)-N-methylmethanesulfonamide], the JAK2/JAK1 is listed as greater than 5.
Take `C[C@H](O)c1nc2cnc3ccsc3c2n1[C@H]1CC[C@H](CC#N)OC1` [Example 45, ((2R,5S)-5-{2-[(1S)-1-Hydroxyethyl]-1H-imidazo[4,5-d]thieno[3,2-b]pyridin-1-yl}tetrahydro-2H-pyran-2-yl)acetonitrile]: the JAK2/JAK1 is recorded as greater than 10.
With `C[C@@H](O)c1nc2cnc3ccsc3c2n1[C@H]1CCN(CCCC(F)(F)F)C1` [Example 64, (1R)-1-{1-[(3S)-1-(4,4,4-Trifluorobutyl)pyrrolidin-3-yl]-1H-imidazo[4,5-d]thieno[3,2-b]pyridin-2-yl}ethanol], the JAK2/JAK1 is greater than 10.
Under `C[C@@H](O)c1nc2cnc3ccsc3c2n1[C@H]1CC[C@H](O)CC1` [Example 3, trans-4-{2-[(1R)-1-Hydroxyethyl]-1H-imidazo[4,5-d]thieno[3,2-b]pyridin-1-yl}cyclohexanol] stands greater than 10.
As to `C[C@@H](O)c1nc2cnc3ccsc3c2n1[C@H]1CC[C@H](CF)CC1` [Example 12, (1R)-1-{1-[trans-4-(Fluoromethyl)cyclohexyl]-1H-imidazo[4,5-d]thieno[3,2-b]pyridin-2-yl}ethanol], the JAK2/JAK1 is on record as greater than 10.
On to `C[C@@H](O)c1nc2cnc3ccsc3c2n1[C@H]1CCCN(CCC#N)C1` [Example 56, 3-((3S)-3-{2-[(1R)-1-Hydroxyethyl]-1H-imidazo[4,5-d]thieno[3,2-b]pyridin-1-yl}piperidin-1-yl)propanenitrile], for which the JAK2/JAK1 was greater than 10.
Under “((1R,2R,4S)-2-Hydroxy-4-{2-[(1R)-1-hydroxyethyl]-1H-imidazo[4,5-d]thieno[3,2-b]pyridin-1-yl}cyclohexyl)acetonitrile and ((1S,2S,4R)-2-hydroxy-4-{2-[(1R)-1-hydroxyethyl]-1H-imidazo[4,5-d]thieno[3,2-b]pyridin-1-yl}cyclohexyl)acetonitrile [36 (first peak)]” stands greater than 10; under `CC(C)OC(=O)NC[C@H]1CC[C@H](n2c([C@@H](C)O)nc3cnc4ccsc4c32)CC1` [Example 84, Isopropyl [(trans-4-{2-[(1R)-1-hydroxyethyl]-1H-imidazo[4,5-d]thieno[3,2-b]pyridin-1-yl}cyclohexyl)methyl]carbamate], greater than 10.
As for `C[C@@H](O)c1nc2cnc3ccsc3c2n1[C@H]1CC[C@H](CC#N)CC1.Cl` [Example 10, (trans-4-{2-[(1R)-1-Hydroxyethyl]-1H-imidazo[4,5-d]thieno[3,2-b]pyridin-1-yl}cyclohexyl)acetonitrile HCl salt], the JAK2/JAK1 was greater than 10.
On to `C[C@@H](O)c1nc2cnc3ccsc3c2n1[C@H]1CCCN(C(=O)CCc2ccccc2)C1` [Example 57], for which the JAK2/JAK1 was greater than 10.
As to `CC(C)c1nc2cnc3ccsc3c2n1[C@H]1CC[C@H](CC#N)OC1` [Example 42, [(2R,5S)-5-(2-Isopropyl-1H-imidazo[4,5-d]thieno[3,2-b]pyridin-1-yl)tetrahydro-2H-pyran-2-yl]acetonitrile], the JAK2/JAK1 is on record as greater than 10.
In the case of `C[C@@H](O)c1nc2cnc3ccsc3c2n1[C@H]1CC[C@@H](CC#N)C1.O=C(O)C(F)(F)F` [Example 49, ((1R,3S)-3-{2-[(1R)-1-Hydroxyethyl]-1H-imidazo[4,5-d]thieno[3,2-b]pyridin-1-yl}cyclopentyl)acetonitrile trifluoroacetate], the JAK2/JAK1 was greater than 10.
`C[C@@H](O)c1nc2cnc3ccsc3c2n1C1CCN(CCC#N)CC1` [Example 16, 3-(4-{2-[(1R)-1-Hydroxyethyl]-1H-imidazo[4,5-d]thieno[3,2-b]pyridin-1-yl}piperidin-1-yl)propanenitrile]: the JAK2/JAK1 was greater than 10.
As for `CC(F)c1nc2cnc3ccsc3c2n1[C@H]1CC[C@H](CC#N)OC1` (stereo partly drawn) [Example 71, {(2R,5S)-5-[2-(1-Fluoroethyl)-1H-imidazo[4,5-d]thieno[3,2-b]pyridin-1-yl]tetrahydro-2H-pyran-2-yl}acetonitrile], the JAK2/JAK1 is greater than 10.
Under `C[C@@H](O)c1nc2cnc3ccsc3c2n1C1CCC(O)(CC#N)CC1` (single isomer, unassigned) [24 (second peak)] stands greater than 10; under `C[C@@H](O)c1nc2cnc3ccsc3c2n1[C@H]1CCCN(C(=O)CCc2cn[nH]c2)C1` [Example 53, (1R)-1-(1-{(3S)-1-[3-(1H-Pyrazol-4-yl)propanoyl]piperidin-3-yl}-1H-imidazo[4,5-d]thieno[3,2-b]pyridin-2-yl)ethanol], greater than 10.
Turning to `C[C@@H](O)c1nc2cnc3ccsc3c2n1[C@H]1CC[C@H](CC#N)[C@H](N)C1` [Example 67, ((1R,2R,4S)-2-Amino-4-{2-[(1R)-1-hydroxyethyl]-1H-imidazo[4,5-d]thieno[3,2-b]pyridin-1-yl}cyclohexyl)acetonitrile], the JAK2/JAK1 was greater than 10.
For the compound `C[C@@H](O)c1nc2cnc3ccsc3c2n1C1CCN(CC#N)CC1.O=C(O)C(F)(F)F` [Example 61, (4-{2-[(1R)-1-Hydroxyethyl]-1H-imidazo[4,5-d]thieno[3,2-b]pyridin-1-yl}piperidin-1-yl)acetonitrile trifluoroacetate], the JAK2/JAK1 is on record as greater than 10.
As to `C[C@@H](O)c1nc2cnc3ccsc3c2n1[C@H]1CC[C@H](CNC(=O)OC2CCOC2)CC1` (stereo partly drawn) [Example 85, Tetrahydrofuran-3-yl [(trans-4-{2-[(1R)-1-hydroxyethyl]-1H-imidazo[4,5-d]thieno[3,2-b]pyridin-1-yl}cyclohexyl)methyl]carbamate], the JAK2/JAK1 is greater than 10.
As for `C[C@@H](O)c1nc2cnc3ccsc3c2n1C1CCN(CCCC(F)(F)F)CC1` [Example 60, (1R)-1-{1-[1-(4,4,4-Trifluorobutyl)piperidin-4-yl]-1H-imidazo[4,5-d]thieno[3,2-b]pyridin-2-yl}ethanol], the JAK2/JAK1 is greater than 10.
Then `C[C@@H](O)c1nc2cnc3ccsc3c2n1[C@H]1CCN(CCCC#N)C1` [Example 65, 4-((3S)-3-{2-[(1R)-1-Hydroxyethyl]-1H-imidazo[4,5-d]thieno[3,2-b]pyridin-1-yl}pyrrolidin-1-yl)butanenitrile], with greater than 10.
Under `N#CC[C@H]1CC[C@H](n2c(CO)nc3cnc4ccsc4c32)CO1` [Example 91, {(2R,5S)-5-[2-(Hydroxymethyl)-1H-imidazo[4,5-d]thieno[3,2-b]pyridin-1-yl]tetrahydro-2H-pyran-2-yl}acetonitrile] stands greater than 10; under “[(1R,2S,4S)-4-(2-Methyl-1H-imidazo[4,5-d]thieno[3,2-b]pyridin-1-yl)-2-hydroxycyclohexyl]acetonitrile and [(1S,2R,4R)-4-(2-methyl-1H-imidazo[4,5-d]thieno[3,2-b]pyridin-1-yl)-2-hydroxycyclohexyl]acetonitrile [41 (first peak)]”, greater than 10.

The values above are taken from patent publication US10370387B2, “Tricyclic fused thiophene derivatives as JAK inhibitors” (Incyte Corporation, priority 2012, dated 2019).
